{"source": "patent US20090312374A1", "about": "“DERIVATIVES OF 4,6-DISUBSTITUTED 1,2,4-TRIAZOLO- 1,3,4-THIADIAZOLE, A PROCESS AND USES THEREOF” (UNIVERSITY OF MYSORE, priority 2005, published 2009)", "key": {"[1]": {"system": "cervical cancer cell line", "assay": "Immunofluorescence (Hoechst 33258) apoptosis, TN and NC series, cervical cancer", "assay_type": "cell-based", "details": "versus breast cancer and normal cells; FIG. 1", "description": "(§1) Subsequently, the cells were washed with PBS."}, "[2]": {"system": "Breast cancer", "assay": "Immunofluorescence (Hoechst 33258) apoptosis, TN and NC series, breast cancer", "assay_type": "cell-based", "details": "FIG. 1", "description": "as §1"}, "[3]": {"system": "H2AX", "assay": "Western blot of isolated histones probed with H2AX antibody", "assay_type": "cell-based", "details": "HeLa cells, 24 h compound treatment", "description": "HeLa cells (3×10^6 cells per 90-mm dish) were seeded overnight, and histones were extracted from 24 h of compound treated cells as reported previously. In brief, cells were harvested, washed in ice-cold buffer A (150 mM KCl, 20 mM HEPES, pH 7.9, 0.1 mM EDTA, and 2.5 mM MgCl2) and lysed in buffer A containing 250 mM sucrose and 1% (v/v) Triton X-100. Nuclei were recovered by centrifugation and washed, and proteins were extracted for 1 h using 0.25 M HCl. The proteins were precipitated with 25% (w/v) trichloroacetic acid and sequentially washed with ice-cold acidified acetone (20 μl of 12 N HCl in 100 ml of acetone) and acetone, air-dried, and dissolved in the sample buffer (5.8 M urea, 0.9 M glacial acetic acid, 16% glycerol, and 4.8% 2-mercaptoethanol). The histones (equal amounts in all lanes) were resolved on SDS PAGE gel.\nThe western blot analysis was done using the isolated histones and probed with H2AX antibody and the results say that 2 of the compounds (NC-2 and NC-5) get hyperphosphorylated."}, "[4]": {"system": "advanced squamous-cell cervical cancer", "details": "125 mg/m2 weekly, cited from earlier work"}, "[5]": {"details": "twenty-one patients, advanced squamous-cell cervical cancer"}}, "data": [{"smiles": "Cc1ccc(-c2nnc3sc(C4CCc5cc(F)ccc5O4)nn23)cc1", "note": "(stereo not drawn) [TN-4, 6-(6-fluorochroman-2-yl)-3-p-tolyl-[1,2,4]triazolo[3,4-b][1,3,4]thiadiazole]", "values": [{"measurement": "selected as specific to cervical cancer cell line i.e. squamous cancer cell lines", "setting": "[1]", "value": "selected"}]}, {"smiles": "CCc1nnc2sc(C3CCc4cc(F)ccc4O3)nn12", "note": "(stereo not drawn) [TN-2, 6-(6-fluorochroman-2-yl)-3-ethyl-[1,2,4]triazolo[3,4-b][1,3,4]thiadiazole]", "values": [{"measurement": "extent of apoptosis", "setting": "[2]", "value": "little apoptosis"}]}, {"smiles": "CCc1nnc2sc(-c3cccc(Cl)c3Cl)nn12", "note": "[NC-2, 6-(2,3-dichlorophenyl)-3-ethyl-[1,2,4]triazolo[3,4-b][1,3,4]thiadiazole]", "values": [{"measurement": "selected as specific to cervical cancer cell line i.e. squamous cancer cell lines", "setting": "[1]", "value": "selected"}, {"measurement": "H2AX phosphorylation (western blot of isolated histones)", "setting": "[3]", "value": "hyperphosphorylated"}]}, {"smiles": "Clc1ccc(-c2nnc3sc(-c4cccc(Cl)c4Cl)nn23)cc1", "note": "[NC-5, 6-(2,3-dichlorophenyl)-3-(4-chlorophenyl)-[1,2,4]triazolo[3,4-b][1,3,4]thiadiazole]", "values": [{"measurement": "selected as specific to cervical cancer cell line i.e. squamous cancer cell lines", "setting": "[1]", "value": "selected"}, {"measurement": "H2AX phosphorylation (western blot of isolated histones)", "setting": "[3]", "value": "hyperphosphorylated"}]}, {"smiles": "Nc1nncs1", "values": [{"measurement": "activity in previously treated cervical carcinoma patients", "setting": "[4]", "value": "minimal activity"}, {"measurement": "patients with increasing disease", "setting": "[4]; [5]", "value": 14}, {"measurement": "patients with partial response", "setting": "[4]; [5]", "value": "One"}, {"measurement": "patients with stable disease", "setting": "[4]; [5]", "value": "six"}]}, {"smiles": "Fc1ccc2c(c1)CCC(c1nn3c(-c4ccccc4)nnc3s1)O2", "note": "(stereo not drawn) [TN-3, 6-(6-fluorochroman-2-yl)-3-phenyl-[1,2,4]triazolo[3,4-b][1,3,4]thiadiazole]", "values": [{"measurement": "selected as specific to cervical cancer cell line i.e. squamous cancer cell lines", "setting": "[1]", "value": "selected"}]}, {"smiles": "Fc1ccc2c(c1)CCC(c1nn3c(-c4ccc(Cl)cc4)nnc3s1)O2", "note": "(stereo not drawn) [TN-5, 3-(4-chlorophenyl)-6-(6-fluorochroman-2-yl)-[1,2,4]triazolo[3,4-b][1,3,4]thiadiazole]", "values": [{"measurement": "extent of apoptosis", "setting": "[2]", "value": "little apoptosis"}]}]}
